For orientation: IC50 means the point on the concentration scale where inhibition reaches its midpoint.

human recombinant PDE4B1 enzyme, sequence (Q07343 whole entry): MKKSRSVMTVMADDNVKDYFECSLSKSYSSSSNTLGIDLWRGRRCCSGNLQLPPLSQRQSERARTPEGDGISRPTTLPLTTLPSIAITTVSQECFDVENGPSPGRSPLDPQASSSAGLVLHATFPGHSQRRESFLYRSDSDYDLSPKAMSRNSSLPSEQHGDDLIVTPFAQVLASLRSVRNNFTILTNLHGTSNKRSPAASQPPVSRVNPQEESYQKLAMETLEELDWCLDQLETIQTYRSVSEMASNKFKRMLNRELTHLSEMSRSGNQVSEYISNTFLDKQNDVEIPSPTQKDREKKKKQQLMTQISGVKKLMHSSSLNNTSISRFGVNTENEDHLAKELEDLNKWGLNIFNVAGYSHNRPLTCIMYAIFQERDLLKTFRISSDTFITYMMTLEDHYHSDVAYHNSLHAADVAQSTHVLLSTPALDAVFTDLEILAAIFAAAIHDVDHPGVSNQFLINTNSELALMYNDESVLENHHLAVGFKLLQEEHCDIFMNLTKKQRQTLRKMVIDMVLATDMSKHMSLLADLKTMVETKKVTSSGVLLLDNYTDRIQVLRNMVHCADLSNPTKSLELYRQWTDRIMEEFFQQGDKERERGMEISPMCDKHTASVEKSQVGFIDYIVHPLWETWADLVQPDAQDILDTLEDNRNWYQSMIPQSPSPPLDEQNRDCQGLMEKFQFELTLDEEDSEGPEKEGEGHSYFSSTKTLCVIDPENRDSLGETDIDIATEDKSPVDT

In the experiment the target is human recombinant PDE4B1 enzyme (Homo sapiens (Human), UniProt Q07343). In words: Inhibition of PDE4B1 activity by cAMP HTRF assay. Format: biochemical. As to conditions: human recombinant PDE4B1, cAMP 40 nM, pH 7.4. How it is done:
Determination of the inhibition of the compounds on PDE4B1 activity by using cAMP HTRF® assay
The inhibitory effect of the compounds on human PDE4B1 enzyme activity was determined by quantifying the 5′-adenosine monophosphate (5′-AMP) formed from 3′,5′-cyclic adenosine monophosphate (cAMP).
The test compound or water (control) and human recombinant PDE4B1 enzyme (4.8 U) were mixed in a buffer solution (pH 7.4) consisting of 1× Hanks' balanced salt solution (HBSS), 5 mM HEPES, 3 mM MgCl2, and 0.1% BSA and incubated for 10 min. A cAMP enzyme substrate (final concentration 40 nM) was added, and the mixture was incubated at room temperature for 60 min. Then a fluorescent acceptor (Dye2 labeled with cAMP), a fluorescent donor (anti-cAMP antibody labeled with europium cryptate) and a non-specific phosphodiesterase inhibitor IBMX (3-isobutyl-1-methyl xanthine; final concentration 1 mM) were added. After 60 min, the fluorescence transfer related to the amount of remaining cAMP was measured on a microplate reader (Rubystar, BMG) at λex=337 nm, λem=620 nm and λem=665 nm. The enzyme activity is calculated from the ratio of the signals measured at 665 nm and 620 nm. The results are expressed as percent inhibition of the enzyme activity of the control (without PDE4 inhibitor). The enzyme was omitted for measurement of the basic control. The IC50 value (IC50=the concentration that caused the half-maximum inhibition of the specific activity of the control) is derived from dose-response measurements with eight different concentrations (n=2; repeated 2 times)
Background: TR-FRET usually uses a lanthanide donor and a delayed reading to cut background.
`COc1ccc(/C=C/n2c(C)cc(=O)cc2C)cc1OCC=C(C)C` [Example 65, (E)-1-((3-(3-methylbut-2-en-1-yl)oxy-4-methoxy)-styryl)-2,6-dimethylpyridin-4(1H)-one]: the IC50 stood at 520 nM.

For `CCCOc1cc(C(=O)Cn2c(C)cc(=O)cc2C)ccc1OC` [Example 13, 1-(2-(3-propoxy-4-methoxyphenyl)-2-oxoethyl)-2,6-dimethylpyridin-4(1H)-one], the 50% inhibitory concentration (IC50) is 4.9 nM.

`COc1ccc(/C(Cn2c(C)cc(=O)cc2C)=N\OCSC)cc1OCC1CC1` [Example 42, (E)-1-(2-(3-cyclopropylmethoxy-4-methoxyphenyl)-2-(methylthiomethoxyimido)ethyl)-2,6-dimethylpyridin-4(1H)-one]: the IC50 stood at 8.2 nM.

With `Cc1cc(=O)cc(C)n1CC(=O)c1ccc(OC(F)F)c(OCC2CC2)c1` [Example 49, 1-(2-(3-cyclopropylmethoxy-4-difluoromethoxyphenyl)-2-oxoethyl)-2,6-dimethylpyridin-4(1H)-one], the IC50 is 2.9 nM.

For `COc1ccc(/C=C/n2c(C)cc(=O)cc2C)cc1OCC(C)(C)C` [Example 57, (E)-1-((3-neopentyloxy-4-methoxy)-styryl)-2,6-dimethylpyridin-4(1H)-one], the IC50 came out at 100 nM.

On to `COc1ccc(CCn2c(C)cc(=O)cc2C)cc1OCC1CC1` [Example 60, (E)-1-(3-cyclopropylmethoxy-4-methoxyphenethyl)-2,6-dimethylpyridin-4(1H)-one], for which the IC50 was 1200 nM.

For the compound `Cc1cc(=O)cc(C)n1/C=C/c1ccc(OC(F)F)c(O[C@H]2CC[S+]([O-])C2)c1` (single isomer, unassigned) [Example 98-2], the IC50 came to 12.5 nM.

Consider `CC#CCOc1cc(/C=C/n2c(C)cc(=O)cc2C)ccc1OC` [Example 67, (E)-1-(3-(but-2-yn-1-yloxy)-4-methoxystyryl)-2,6-dimethylpyridin-4(1H)-one], for which the IC50 was 170 nM.

As for `COc1ccc(/C(=C/n2c(C)cc(=O)cc2C)C(=O)N(C)C)cc1OCC1CC1` [Example 109, (Z)-2-(3-cyclopropylmethoxy-4-methoxyphenyl)-3-(2,6-dimethyl-4-carbonylpyridin-1(4H)-yl)-N,N-dimethylacrylamide], the IC50 was 180 nM.

As for `C=CCOc1cc(C(=O)Cn2c(C)cc(=O)cc2C)ccc1OC` [Example 26, 1-(2-(3-allyloxy-4-methoxyphenyl)-2-oxoethyl)-2,6-dimethylpyridin-4(1H)-one], the IC50 came out at 39 nM.

As to `COc1ccc(C(=O)Cn2c(C)cc(=O)cc2C)cc1OC1CCCO1` (stereo not shown) [Example 31, 1-(2-(3-(tetrahydrofuran-2-yl)oxy-4-methoxyphenyl)-2-oxoethyl)-2,6-dimethylpyridin-4(1H)-one], the IC50 stood at 26 nM.

As for `CCOC(=O)/C(=C\n1c(C)cc(=O)cc1C)c1ccc(OC)c(OCC2CC2)c1` [Example 113, (Z)-ethyl 2-(3-cyclopropylmethoxy-4-methoxyphenyl)-3-(2,6-dimethyl-4-carbonylpyridin-1(4H)-yl)-acrylate], the IC50 came to 170 nM.

With `COc1ccc(C(=O)Cn2c(C)cc(=O)cc2C)cc1OC` [Example 11, 1-(2-(3,4-dimethoxyphenyl)-2-oxoethyl)-2,6-dimethylpyridin-4(1H)-one], the IC50 worked out at 44 nM.

As for `CC#C/C(=C\n1c(C)cc(=O)cc1C)c1ccc(OC(F)F)c(OCC2CC2)c1` [Example 114, (Z)-1-(2-(3-cyclopropylmethoxy-4-difluoromethoxyphenyl)pent-1-en-3-yn-1-yl)-2,6-dimethylpyridin-4(1H)-one], the IC50 was 1.6 nM.

For `CCCOc1cc(/C=C/n2c(C)cc(=O)cc2C)ccc1OC` [Example 53, (E)-1-(3-propoxy-4-methoxystyryl)-2,6-dimethylpyridin-4(1H)-one], the IC50 came to 15 nM.

For `COc1ccc(/C=C/n2c(C)cc(=O)cc2C)cc1OCCS(C)(=O)=O` [Example 79, (E)-1-(3-methylsulfoneethoxy-4-methoxystyryl)-2,6-dimethylpyridin-4(1H)-one], the IC50 turned out to be 160 nM.

In the case of `COc1ccc(C2CC2n2c(C)cc(=O)cc2C)cc1OCC1CC1` (stereo not shown) [Example 48, 1-(2-(3-cyclopropylmethoxy-4-methoxyphenyl)cyclopropyl)-2,6-dimethylpyridin-4(1H)-one], the IC50 came out at 420 nM.

As for `COc1ccc(C(=O)Cn2ccc(=O)cc2Cl)cc1OCC1CC1` [Example 47, 1-(2-(3-cyclopropylmethoxy-4-methoxyphenyl)-2-oxoethyl)-2-chloropyridin-4(1H)-one], the IC50 stood at 7.1 nM.

As for `COc1ccc(/C=C/n2c(C)cc(=O)cc2C)cc1OCC(C)C` [Example 56, (E)-1-(3-iso-butoxy-4-methoxystyryl)-2,6-dimethylpyridin-4(1H)-one], the IC50 turned out to be 16 nM.

As for `COc1ccc(C(=O)Cn2c(C)cc(=O)cc2C)cc1OC1CC=CC1` [Example 25, 1-(2-(3-(cyclopent-3-en-1-yloxy)-4-methoxyphenyl)-2-oxoethyl)-2,6-dimethylpyridin-4(1H)-one], the IC50 was determined as 11.5 nM.

On to `COc1ccc(/C=C/n2c(C)cc(=O)cc2C)cc1OC1CCCC1` [Example 62, (E)-1-((3-cyclopentyloxy-4-methoxy)-styryl)-2,6-dimethylpyridin-4(1H)-one], for which the IC50 is 10.2 nM.

Regarding `CCCCOc1cc(C(=O)Cn2c(C)cc(=O)cc2C)ccc1OC` [Example 15, 1-(2(3-n-butoxy-4-methoxyphenyl)-2-oxoethyl)-2,6-dimethylpyridin-4(1H)-one], the IC50 came to 33 nM.

Take `COc1ccc(/C=C/n2c(C)cc(=O)cc2C)cc1O[C@@H]1CCSC1` [Example 85, (R,E)-1-(3-(tetrahydrothiophen-3-yl)oxy-4-methoxystyryl)-2,6-dimethylpyridin-4(1H)-one]: the IC50 worked out at 3.8 nM.

In the case of `COc1ccc(/C(=C\n2c(C)cc(=O)cc2C)c2ccccc2)cc1OCC1CC1` [Example 104-2, (Z)-1-(2-(3-cyclopropylmethoxy-4-methoxyphenyl)-2-phenylethenyl)-2,6-dimethylpyridin-4(1H)-one], the IC50 turned out to be 8400 nM.

For the compound `COc1ccc(C(=O)Cn2c(C)cc(=O)cc2C)cc1OC1CCC1` [Example 21, 1-(2-(3-cyclobutyloxy-4-methoxyphenyl)-2-oxoethyl)-2,6-dimethylpyridin-4(1H)-one], the half-inhibitory concentration (IC50) is 4.6 nM.

As to `CC#CC(=O)OC(Cn1c(C)cc(=O)cc1C)c1ccc(OC)c(OCC2CC2)c1` (stereo not shown) [Example 8, (1-(3-cyclopropylmethoxy-4methoxyphenyl)-2-(2,6-dimethyl-4-carbonylpyridin-1(4H)-yl)ethyl) but-2-ynoate], the IC50 came out at 23 nM.

Turning to `Cc1cc(=O)cc(C)n1/C=C/c1ccc(OC(F)F)c(O[C@@H]2CC[S+]([O-])C2)c1` (single isomer, unassigned) [Example 101-2], the IC50 worked out at 26 nM.

`COc1ccc(C(=O)Cn2ccc(=O)cc2C)cc1OCC1CC1` [Example 46, 1-(2-(3-cyclopropylmethoxy-4-methoxyphenyl)-2-oxoethyl)-2-methylpyridin-4(1H)-one]: the IC50 stood at 25 nM.

Turning to `COc1ccc(/C=C/n2c(C)cc(=O)cc2C)cc1OCC1CC1` [Example 59, (E)-1-(3-cyclopropylmethoxy-4-methoxystyryl)-2,6-dimethylpyridin-4(1H)-one], the IC50 was 5.1 nM.

With `COc1ccc(/C=C/n2c(C)cc(=O)cc2C)cc1OC1CC1` [Example 58, (E)-1-(3-cyclopropyloxy-4-methoxystyryl)-2,6-dimethylpyridin-4(1H)-one], the IC50 was 5.5 nM.

For `COc1ccc(C(=O)Cn2c(C)cc(=O)cc2C)cc1OCC1CCC1` [Example 22, 1-(2-(3-cyclobutylmethoxy-4-methoxyphenyl)-2-oxo)ethyl-2,6-dimethylpyridin-4(1H)-one], the IC50 amounted to 20 nM.

Regarding `COc1ccc(/C=C/n2c(C)cc(=O)cc2C)cc1O[C@H]1CCSC1` [Example 82, (S,E)-1-(3-(tetrahydrothiophen-3-yl)oxy-4-methoxystyryl)-2,6-dimethylpyridin-4(1H)-one], the IC50 turned out to be 7.5 nM.

On to `Cc1cc(=O)cc(C)n1/C=C/c1ccc(OC(F)F)c(OC[S+](C)[O-])c1` (stereo not shown) [Example 91, (E)-1-(3-methylsulfoxidemethoxy-4-difluoromethoxystyryl)-2,6-dimethylpyridin-4(1H)-one], for which the IC50 was 75 nM.

As to `COc1ccc(C(=O)Cn2c(C)cc(=O)cc2C)cc1OCC(C)C` [Example 16, 1-(2-(3-iso-butoxy-4-methoxyphenyl)-2-oxoethyl)-2,6-dimethylpyridin-4(1H)-one], the IC50 stood at 10.3 nM.

Take `COc1ccc(/C=C/n2c(C)cc(=O)cc2C)cc1OC(=O)C1CC1` [Example 72, (E)-1-((3-cyclopropylformyloxy-4-methoxy)-styryl)-2,6-dimethylpyridin-4(1H)-one]: the 50% inhibitory concentration (IC50) is 3900 nM.

For `COc1ccc(/C=C/n2c(C)cc(=O)cc2C)cc1OC1CCS(=O)(=O)C1` (stereo not shown) [Example 81, (E)-1-(3-((1,1,-dioxotetrahydrothiophen-3-yl)oxy)-4-methoxystyryl)-2,6-dimethylpyridin-4(1H)-one], the IC50 came out at 1.15 nM.

Take `COc1ccc(/C=C/n2c(C)cc(=O)cc2C)cc1OC1COC1` [Example 68, (E)-1-((3-(oxacyclobutan-3-yl-oxy)-4-methoxy)-styryl)-2,6-dimethylpyridin-4(1H)-one]: the IC50 was 27 nM.
